Experimental data as given in patent publication US9096591B2, “Tetracyclic compounds” (Medivation Technologies, Inc., priority 2007, dated 2015).
Like-named read-outs stand apart in the source and are kept apart here.

Columns and labels:
[1] = biological target: T1, human recombinant histamine H1 receptor (Homo sapiens, UniProt P35367); assay: Histamine H1 radioligand binding ([3H]Pyrilamine)
T1 construct: expressed in transfected cells; host or cells: CHO cells
How it was run: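 CHO-expressed receptor in modified Tris-HCl buffer (50 mM, pH 7.4; 2 mM MgCl2, 100 mM NaCl, 250 mM sucrose); bound ligand measured after filtration and washing.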

[2] = biological target: T2, human recombinant histamine H2 receptor (Homo sapiens, UniProt P25021); assay: Histamine H2 radioligand binding ([125I]Aminopotentidine)
T2 construct: expressed in transfected cells; host or cells: CHO-K1 cells
T2 sequence (P25021 whole entry): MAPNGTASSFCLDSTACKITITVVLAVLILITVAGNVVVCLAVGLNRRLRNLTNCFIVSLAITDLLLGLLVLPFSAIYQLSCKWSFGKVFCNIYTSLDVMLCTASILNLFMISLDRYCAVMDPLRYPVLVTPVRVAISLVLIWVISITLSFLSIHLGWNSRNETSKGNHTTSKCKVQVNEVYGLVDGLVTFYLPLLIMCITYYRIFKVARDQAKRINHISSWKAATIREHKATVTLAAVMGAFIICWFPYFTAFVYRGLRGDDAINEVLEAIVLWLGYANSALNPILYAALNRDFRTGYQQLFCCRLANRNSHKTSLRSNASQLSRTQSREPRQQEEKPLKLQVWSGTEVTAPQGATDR
How it was run: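 This radioligand binding assay measured displacement of [125I]Aminopotentidine from recombinant human histamine H2 receptors. Compounds were dissolved in 1% DMSO vehicle. Specific binding was calculated by subtracting non-specific binding, defined using 3 μM Tiotidine, and activity was reported as percentage inhibition of that specific binding.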

[3] = biological target: T3, human recombinant adrenergic α1D receptor (Homo sapiens, UniProt P25100); assay: Adrenergic α1D radioligand binding ([3H]Prozosin); set-up: Inhibition of ligand binding, Adren. alpha1D: concentration or dose not given beside the values; details: percent inhibition of specific binding
T3 construct: expressed in transfected cells; host or cells: HEK-293 cells
T3 sequence (P25100 1-572): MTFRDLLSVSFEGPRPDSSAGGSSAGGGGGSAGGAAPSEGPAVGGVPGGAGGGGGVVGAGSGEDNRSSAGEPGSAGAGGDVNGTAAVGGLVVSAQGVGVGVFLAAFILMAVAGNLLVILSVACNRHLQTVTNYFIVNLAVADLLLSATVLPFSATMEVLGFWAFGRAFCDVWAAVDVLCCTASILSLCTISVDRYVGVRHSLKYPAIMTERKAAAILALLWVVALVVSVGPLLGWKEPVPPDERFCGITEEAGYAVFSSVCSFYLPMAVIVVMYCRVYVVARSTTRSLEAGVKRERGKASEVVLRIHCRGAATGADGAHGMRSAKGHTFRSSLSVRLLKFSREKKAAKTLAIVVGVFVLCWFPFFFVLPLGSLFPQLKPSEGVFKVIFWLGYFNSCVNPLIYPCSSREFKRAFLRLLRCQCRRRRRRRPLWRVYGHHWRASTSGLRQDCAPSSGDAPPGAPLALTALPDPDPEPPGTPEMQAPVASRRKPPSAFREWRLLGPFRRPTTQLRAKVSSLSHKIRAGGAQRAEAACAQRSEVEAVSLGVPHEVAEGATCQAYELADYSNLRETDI
Procedure: Compounds of invention were incubated with 0.6 nM [^3H]Prozosin for 60 minutes at 25° C. Non-specific binding was estimated in the presence of 10 μM phentolamine. Receptor proteins were filtered and washed, the filters were then counted to determine [^3H]Prozosin specifically bound. […] Biochemical assay results are presented as the percent inhibition of specific binding in Table 6.

[4] = biological target: T4, human recombinant adrenergic α2B receptor (Homo sapiens, UniProt P18089); assay: Adrenergic α2B radioligand binding ([3H]Rauwolscine); set-up: Inhibition of ligand binding, Adren. alpha2B: concentration or dose not given beside the values; details: percent inhibition of specific binding
T4 construct: expressed in transfected cells; host or cells: CHO-K1 cells
T4 sequence (P18089 1-450): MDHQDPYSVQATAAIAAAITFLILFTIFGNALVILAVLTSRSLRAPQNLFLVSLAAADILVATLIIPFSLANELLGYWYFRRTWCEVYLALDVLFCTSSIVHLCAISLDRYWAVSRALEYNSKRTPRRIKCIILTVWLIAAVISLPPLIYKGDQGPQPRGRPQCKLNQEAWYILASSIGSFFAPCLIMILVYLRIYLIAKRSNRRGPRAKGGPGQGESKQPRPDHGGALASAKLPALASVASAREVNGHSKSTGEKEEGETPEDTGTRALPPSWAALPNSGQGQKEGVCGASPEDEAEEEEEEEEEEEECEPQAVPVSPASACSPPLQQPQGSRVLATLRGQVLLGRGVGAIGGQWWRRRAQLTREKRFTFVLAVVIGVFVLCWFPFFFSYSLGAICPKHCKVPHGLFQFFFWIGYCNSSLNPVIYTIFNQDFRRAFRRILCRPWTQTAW
How it was run: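 Incubation ran 60 minutes at 25 °C in modified Tris-HCl buffer (50 mM, pH 7.4, 12.5 mM MgCl2, 1 mM EDTA, 0.2% BSA) using CHO-K1-expressed human receptor.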

[5] = biological target: T5, Serotonin (5-Hydroxytryptamine) 5-HT7 (Homo sapiens, UniProt P34969); assay: Serotonin 5-HT7 radioligand binding ([3H]LSD); set-up: Inhibition of ligand binding, Ser. 5-HT7: concentration or dose not given beside the values; details: percent inhibition of specific binding
T5 construct: expressed in transfected cells; host or cells: CHO cells
T5 sequence (P34969 whole entry): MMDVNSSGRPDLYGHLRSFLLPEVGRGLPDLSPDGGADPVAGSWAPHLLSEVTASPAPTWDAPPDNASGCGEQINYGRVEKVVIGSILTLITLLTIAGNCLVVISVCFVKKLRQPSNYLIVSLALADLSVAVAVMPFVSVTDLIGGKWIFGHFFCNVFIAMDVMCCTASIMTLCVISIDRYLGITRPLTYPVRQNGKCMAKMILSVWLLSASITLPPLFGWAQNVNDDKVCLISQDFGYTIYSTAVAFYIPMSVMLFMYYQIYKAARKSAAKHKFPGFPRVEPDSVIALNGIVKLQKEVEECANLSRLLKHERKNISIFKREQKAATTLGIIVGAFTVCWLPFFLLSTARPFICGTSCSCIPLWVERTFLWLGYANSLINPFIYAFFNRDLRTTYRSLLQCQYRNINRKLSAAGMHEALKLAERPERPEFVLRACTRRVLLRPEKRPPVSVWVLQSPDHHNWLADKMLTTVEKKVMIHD
Procedure: Lysergic acid diethylamide (LSD) for 2 hours at 25° C. […] Receptor proteins were filtered and washed, the filters were then counted to determine [^3H]LSD specifically bound. […] Biochemical assay results are presented as the percent inhibition of specific binding in Table 6.

[6] = percent inhibition of specific binding, screened at 1 μM, read-out: Inhibition of ligand binding, Hist. H1
[7] = percent inhibition of specific binding, screened at 1 μM, read-out: Inhibition of ligand binding, Hist. H2
[8] = read-out: Inhibition of ligand binding, Hist. H1
[9] = read-out: Inhibition of ligand binding, Hist. H2
[10] = read-out: Histamine Binding H1, percent inhibition of specific binding

T1 sequence (P35367 whole entry): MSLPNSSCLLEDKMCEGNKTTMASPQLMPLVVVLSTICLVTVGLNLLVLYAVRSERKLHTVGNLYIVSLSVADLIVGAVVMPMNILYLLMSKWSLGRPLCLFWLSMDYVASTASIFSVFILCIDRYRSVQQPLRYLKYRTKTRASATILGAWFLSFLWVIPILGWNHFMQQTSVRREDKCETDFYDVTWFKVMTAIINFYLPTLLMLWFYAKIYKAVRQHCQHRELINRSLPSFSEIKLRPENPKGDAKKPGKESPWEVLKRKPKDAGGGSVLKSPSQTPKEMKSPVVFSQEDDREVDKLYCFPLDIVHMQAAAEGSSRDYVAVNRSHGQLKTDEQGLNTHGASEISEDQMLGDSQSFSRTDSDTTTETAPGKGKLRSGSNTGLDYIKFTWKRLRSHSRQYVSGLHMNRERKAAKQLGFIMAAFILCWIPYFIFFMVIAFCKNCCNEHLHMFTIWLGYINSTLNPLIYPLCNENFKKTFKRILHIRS

SMILES | inhibition at 1 µM [1, 6] | inhibition at 1 µM [2, 7] | Inhibition of ligand binding, Adren. alpha1D [3] | Inhibition of ligand binding, Adren. alpha2B [4] | Inhibition of ligand binding, Ser. 5-HT7 [5] | inhibition at 1 µM [1, 8] | inhibition at 1 µM [2, 9] | inhibition at 0.03 µM [1, 10] | inhibition at 0.1 µM [1, 10] | inhibition at 1 µM [1, 10] | inhibition at 0.1 µM ([2]; 0.1 μM compound, 0.1 nM [125I]Aminopotentidine, read-out: Histamine Binding H2, percent inhibition of specific binding) | inhibition at 0.3 µM ([2]; 0.3 μM compound, 0.1 nM [125I]Aminopotentidine, read-out: Histamine Binding H2, percent inhibition of specific binding) | inhibition at 1 µM ([2]; 1 μM compound, 0.1 nM [125I]Aminopotentidine, read-out: Histamine Binding H2, percent inhibition of specific binding)
Cc1ccc(CCn2c3c(c4cc(C(F)(F)F)ccc42)CN(C)CC3)cc1 [Compound 47] | 81% | 78% | 81% | 101% | 92% | – | – | – | – | – | – | – | –
Cc1ccc2c(c1)c1c(n2CCc2ccc(C)[n+]([O-])c2)CCN(C)C1 [Compound 394, 5-(2-(2,8-dimethyl-3,4-dihydro-1H-pyrido[4,3-b]indol-5(2H)-yl)ethyl)-2-methylpyridine 1-oxide] | 30% | -2% | 9% | 19% | 7% | – | – | – | – | – | – | – | –
Cc1ccc2c(c1)c1c(n2CCc2ccc(C(=O)O)nc2)CCNC1 [Compound 262] | 81% | -8% | 3% | −2% | 6% | – | – | – | – | – | – | – | –
Cc1ccc2c(c1)c1c(n2CCc2ccccc2)CC(O)N(C)C1=O (stereo not shown) [Compound 215, 3,4-dihydro-3-hydroxy-2,8-dimethyl-5-phenethyl-2H-pyrido[4,3-b]indol-1(5H)-one] | – | – | −5% | −4% | 10% | -2% | 16% | – | – | – | – | – | –
Cc1ccc2c(c1)c1c(n2CC(=O)N2CCCCC2)CCN(C)C1 [Compound 395, 2-(1,2,3,4-tetrahydro-2,8-dimethylpyrido[4,3-b]indol-5-yl)-1-(piperidin-1-yl)ethanone] | 20% | 4% | 9% | 2% | 24% | – | – | – | – | – | – | – | –
CN1CCc2c(c3c(Cl)cccc3n2CCc2ccccc2)C1 [Compound 81] | 94% | 57% | 47% | 90% | 89% | – | – | – | – | – | – | – | –
Cc1ccc2c(c1)c1c(n2CCc2ccc(C(F)(F)F)nc2)CCN(C)C1 [Compound 68] | 99% | 49% | 98% | 111% | 103% | – | – | – | – | – | – | – | –
Cc1ccc2c(c1)c1c(n2CCc2ccccc2)CCNC1 [Compound 228, 2,3,4,5-tetrahydro-8-methyl-5-phenethyl-1H-pyrido[4,3-b]indole] | 81% | 15% | 76% | 101% | 95% | – | – | – | – | – | – | – | –
CN1CCc2c(c3cccc(Cl)c3n2CCc2ccccc2)C1 [Compound 83] | 97% | 97% | 92% | 96% | 95% | – | – | – | – | – | – | – | –
CN1CCc2c(c3cc(F)ccc3n2CCc2ccc(F)cc2)C1 [Compound 253] | 97% | 73% | 81% | 104% | 87% | – | – | – | – | – | – | – | –
CN1CCc2c(c3ccccc3n2CCc2ccccc2)C1 [Compound 2, 2,3,4,5-tetrahydro-2-methyl-5-phenethyl-1H-pyrido[4,3-b]indole] | – | 81% | 72% | – | 100% | 87% | – | 31% | 54% | 87% | 34% | 56% | 81%
Cc1ccc(CCn2c3c(c4cc(Cl)ccc42)CN(C)CC3)cn1 [Compound 225, 8-chloro-2,3,4,5-tetrahydro-2-methyl-5-(2-(6-methylpyridin-3-yl)ethyl)-1H-pyrido[4,3-b]indole] | – | – | 86% | 107% | – | 101% | 72% | – | – | – | – | – | –
Cc1cccc2c3c(n(CCc4ccc(C(F)(F)F)nc4)c12)CCN(C)C3 [Compound 380, 5-(2-(6-(trifluoromethyl)pyridin-3-yl)ethyl)-2,3,4,5-tetrahydro-2,6-dimethyl-1H-pyrido[4,3-b]indole] | 68% | 69% | 73% | 103% | – | – | – | – | – | – | – | – | –
Cc1cnc(CCn2c3c(c4cc(Cl)ccc42)CN(C)CC3)cn1 [Compound 363, 8-Chloro-2-methyl-5-[2-(5-methyl-pyrazin-2-yl)-ethyl]-2,3,4,5-tetrahydro-1H-pyrido[4,3-b]indole] | 95% | 31% | 73% | 104% | – | – | – | – | – | – | – | – | –
Cc1ccc2c(c1)c1c(n2CC(=O)N2CCCC2)CCN(C)C1 [Compound 257, 2-(1,2,3,4-tetrahydro-2,8-dimethylpyrido[4,3-b]indol-5-yl)-1-(pyrrolidin-1-yl)ethanone] | 64% | 1% | 3% | 20% | – | – | – | – | – | – | – | – | –
Cc1cncc(CCn2c3c(c4cc(C)ccc42)CN(C)CC3)c1 [Compound 429, 2,3,4,5-tetrahydro-2,8-dimethyl-5-(2-(5-methylpyridin-3-yl)ethyl)-1H-pyrido[4,3-b]indole] | 100% | 68% | 69% | 115% | – | – | – | – | – | – | – | – | –
Cc1ccc2c(n1)c1c(n2CCc2ccc(C(F)(F)F)nc2)CCN(C)C1 [Compound 353, 9-aza-2,8-dimethyl-5-(2-(6-(trifluoromethyl)pyridin-3-yl)ethyl)-2,3,4,5-tetrahydro-1H-pyrido[4,3-b]indole] | 10% | -2% | 11% | 11% | – | – | – | – | – | – | – | – | –
CCc1ccc(CCn2c3c(c4cc(Cl)ccc42)CN(C)CC3)cn1 [Compound 371, 8-Chloro-5-[2-(6-ethyl-pyridin-3-yl)-ethyl]-2-methyl-2,3,4,5-tetrahydro-1H-pyrido[4,3-b]indole] | 99% | 74% | 88% | 98% | – | – | – | – | – | – | – | – | –
